{"source": "patent US20070225213A1", "about": "“Nucleic acid carriers for delivery of therapeutic agents” (priority 2006, published 2007)", "key": {"[1]": {"system": "NIH3T3", "assay": "Effect of plating time on uptake of NAC-MTN and MTN, fluorescence (Example 11)", "format": "cell-based, mouse", "settings": "cells treated <1 hour after plating", "procedure": "The effect of plating time on the differential rates of uptake between NAC-MTN and MTN were assayed in cells treated <1 hour and 24 hours after plating.\nOn day 1, MCF7, COS7, 3T3, and BHK21 cells were plated out in a standard tissue culture plate. After incubation of 20 minutes samples were added to cells in rows A, C, E, and G. Cells were incubated at 37C in a standard atmosphere of 5%CO2.\nOn day 2, samples were added to rows D, F, and H and the fluorescence was obtained EX620/EM680 S=80. Samples were removed from A,C,E and G, replaced with media and fluorescence read again. On day 2 observed significant drug toxicity in cells of rows A,C, E, G. Sample addition was postponed in row B since MCF7 were not yet confluent.\nOn day 3, added samples to cells in row B containing confluent MCF7's, removed samples from rows D, F, and H replaced with media and read fluorescence.\nFluorescence data from cells taken after removal of media was used to quantitate total MTN retained in the cells. Fluorescence data were converted to mg/ml MTN using a standard curve prepared with free MTN or NAC-MTN.\nThe percentage difference in fluorescence between cells treated with NAC-MTN or MTN alone was used to compare relative drug uptake."}, "[2]": {"system": "BHK21", "assay": "Cell uptake by MTN fluorescence EX620/EM680 (Examples 10 and 13, EX051605)", "format": "cell-based, hamster", "settings": "10% w/w loading in DNA", "procedure": "(§1) Materials: HSGDNA, MTN, ODNAS1116 (phosphorothioated, single stranded DNA, and Beta-cyclodextrin polymer (BCD-SBE, KKBIOMED Inc.) were previously prepared in water at 10 mg/ml, 1 mg/ml, 0.95 mg/ml, and 10 mg/ml respectively.\n(§2) Procedure: For NAC-MTN, combined 37 ul HSGDNA (herring genomic DNA, Promega Inc.), 1426 ul HBSS( Hank's buffered saline, Sigma-Aldrich), with 37 ul of MTN, followed by 1500 ul 2× DMEM media to give 3 ml final and 24 uM (24 micro-molar) MTN and 10% w/w drug loading of MTN. For NAC-MTN (AR1505) combined 62 ul of HSDNA (deg. herring sperm DNA, Sigma) with 2377 ul HBSS, 61.7 ul MTN, 2500 ul 2× media to give 5 ml final and 24 uM MTN and 10% w/w drug loading of MTN to HSDNA. […]\n(§3) Plate#1 Media was aspirated and cells treated with 100 ul of either NAC-MTN, CD-MTN, or MTN at 24 uM MTN final or 12.3 ug/ml MTN in all samples. Samples containing MTN were incubated 4 hours, removed, and fluorescence taken at EX620/EM680. […]\n(§4) Samples were incubated 4 hours, removed, and MTN fluorescence taken at EX620/EM680. […] Average MTN fluorescence was averaged from 6 wells. For each cell type, MTN fluorescence was highest in MTN treated cells, followed by CD-MTN, and lowest in NAC-MTN. […]\n(§5) PLATE#2: Dispensed 50 ul from source plate into plate #2 to give 150 ul final vol 4.1 ug/ml, 8 uMfinal per well, pre-read fluorescence w samples (bkgd) incubated 5 hr, removed, replaced w/ media, read fluor. […]"}, "[3]": {"system": "COS7", "assay": "Cell uptake by MTN fluorescence EX620/EM680 (Examples 10 and 13, EX051605)", "format": "cell-based, green monkey", "settings": "10% w/w loading in DNA", "procedure": "as §1, §2, §3, §4, §5"}}, "data": [{"compound": "O=C1c2c(O)ccc(O)c2C(=O)c2c(NCCNCCO)ccc(NCCNCCO)c21", "note": "[MTN, mitoxantrone]", "values": [{"measurement": "FLUOR (MTN fluorescence in cells)", "setting": "[1]", "value": 18530}, {"measurement": "% reduction in fluorescence relative to MTN alone (MTN = 0%)", "setting": "[2]; Plate#1, 24 uM MTN, 4 hours", "value": 0, "unit": "%"}, {"measurement": "% reduction in fluorescence relative to MTN alone (MTN = 0%)", "setting": "[2]; Plate#2, 8 uM MTN", "value": 0, "unit": "%"}, {"measurement": "% reduction in fluorescence relative to MTN alone (MTN = 0%)", "setting": "[3]; Plate#1, 24 uM MTN, 4 hours", "value": 0, "unit": "%"}, {"measurement": "% reduction in fluorescence relative to MTN alone (MTN = 0%)", "setting": "[3]; Plate#2, 8 uM MTN", "value": 0, "unit": "%"}]}]}
